# Laboratory results reported in patent US20150126530A1, “Novel Substituted Imidazopyrimidines as Gpbar1 Receptor Modulators” (Torrent Pharmaceuticals Limited., priority 2011, published 2015).
# How the values were obtained:
# Diabetic Hamster = test: Single dose efficacy on glucose tolerance (OGTT) in diabetic hamster; format: in vivo; settings: Mesocricetus auratus, read-out: Decrease in AUC of glucose % change w.r.t. vehicle control group; for inhibition in vivo at 36 mg/kg: single oral dose 36 mg/kg; for inhibition in vivo at 41 mg/kg: single oral dose 41 mg/kg
# Method: i) Evaluation of Single Dose Efficacy of Test Compounds on Glucose Tolerance:
# Thus efficacy can be assessed through the effect of test compounds on lowering of plasma glucose during OGTT through stimulating glucose stimulated insulin secretion.
# The potential of test compounds in lowering of Plasma Glucose was evaluated in Oral glucose tolerance test (OGTT) in Diabetic Hamster Model, where diabetes has been induced by administration of low dose of Streptozotocin (STZ) to the High fat diet (HFD) fed glucose intolerant animals. The diabetic hamsters show impaired glucose stimulated insulin secretion and higher plasma glucose excursions than the normal animals, which remains elevated beyond 2 hrs post glucose load. Thus the animal model can be used for evaluating the potential of test compounds to lower plasma glucose through stimulating glucose stimulated insulin secretion. On the day of study post 6 hrs of fasting, test compounds or vehicle was administered orally at dose volume of 2 ml/kg to the hamsters of the respective treatment groups. Subsequent to dosing, a pre-glucose load blood sample was taken. A glucose load of 40% solution at 5 ml/Kg dose volume was administered orally. Blood samples through retroorbital plexus were taken at 15, 30 60 & 120 min. post glucose load and plasma was separated for glucose measurement. Post glucose load percentage change in plasma glucose and AUC of % change glucose by the treatment was assessed.
# [1] = test system: Human enteroendocrine cell-line (NCI-H716); test: Measurement of Glucagon Like Peptide-1 (GLP-1) secretion; format: cell-based; settings: NCI-H716 cells, one hour, with respect to vehicle control
# Method: (C) Measurement of Glucagon Like Peptide-1 (GLP-1):
# Human enteroendocrine cell-line (NCI-H716) were incubated with vehicle or test compounds for one hour. At the end of incubation period, levels of secreted GLP-1 in culture medium were measured by GLP-1 ELISA kit (Millipore). Results are summarized as fold increase in GLP secretion with respect to vehicle control in Table 4.
# human TGR5 [2] = target: T1, human TGR5 (Homo sapiens, UniProt Q8TDU6); test: cAMP Responsive Element (CRE)-Reporter Assay; format: cell-based; settings: luciferase activity relative to vehicle control, five hours, CHO cells transfected with human TGR5 and CRE-luciferase
# T1 construct: host or cells: CHO cells (ATCC)
# T1 sequence (Q8TDU6 1-330): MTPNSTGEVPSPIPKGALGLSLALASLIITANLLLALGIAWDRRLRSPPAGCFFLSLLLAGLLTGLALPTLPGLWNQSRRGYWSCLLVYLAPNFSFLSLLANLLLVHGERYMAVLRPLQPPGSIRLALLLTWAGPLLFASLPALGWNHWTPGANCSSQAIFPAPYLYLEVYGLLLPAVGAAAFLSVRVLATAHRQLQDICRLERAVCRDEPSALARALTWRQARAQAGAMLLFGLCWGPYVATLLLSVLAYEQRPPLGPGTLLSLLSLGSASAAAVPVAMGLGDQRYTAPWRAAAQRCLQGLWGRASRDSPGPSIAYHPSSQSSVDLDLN
# Method: (A) cAMP Responsive Element (CRE)-Reporter Assay:
# CHO cells (ATCC) were transfected with human TGR5 (oriGene) and CRE-luciferase reporter vector. Transfected cells were treated with vehicle control or test compounds (Conc 10 μM) for five hours and then lysed. Cell lysates were monitored for luciferase acivity. Increase in luciferase activity is considered as a result of TGR5 activation. Results were expressed as fold induction as compared to vehicle control.
# Results are summarized in Table 2 where, + indicates 1.5-2 fold while ++, +++, ++++ indicate 2-3 fold, 3-4 fold, and >4 fold induction respectively relative to vehicle control when tested at 10 μM concentration.
# human TGR5 [3] = target: T1, human TGR5; test: cAMP Measurement Assay (Alphascreen); format: cell-based; settings: cAMP levels, CHO cells transfected with human TGR5, one hour
# Method: (B) cAMP Measurement Assay:
# CHO cells (ATCC) were transfected with human TGR5 vector (oriGene). Transfected cells were treated with vehicle control or test compounds for one hour and then lysed. Levels of cAMP were measured in cell lysates employing Alphascreen cAMP assay kit (Perkin Elmer) and results were expressed EC50 values which are summarized in Table 3.
fold induction at 10 µM (human TGR5 [2]),Structure (SMILES),also measured
3 to 4,"CN(C(=O)c1c(-c2ccc(F)cc2)nc2ncccn12)c1ccc(F)cc1 [Compound no. 22, N,2-bis(4-fluorophenyl)-N-methylimidazo[1,2-a]pyrimidine-3-carboxamide]",inhibition in vivo at 36 mg/kg (Diabetic Hamster): 20%; Fold increase in GLP Release [1]: 2.13 fold
> 4,"CN(C(=O)c1c(-c2ccccc2)nc2ncccn12)c1ccc(Cl)cc1 [Compound no. 1, N-(4-chlorophenyl)-N-methyl-2-phenylimidazo[1,2-a]pyrimidine-3-carboxamide]",inhibition in vivo at 36 mg/kg (Diabetic Hamster): 33%; EC50 (human TGR5 [3]): 0.035 µM
2 to 3,"CN(C(=O)c1c(-c2ccc3c(c2)OCO3)nc2ncccn12)c1ccc(F)cc1 [Compound no. 28, 2-(1,3-benzodioxol-5-yl)-N-(4-fluorophenyl)-N-methylimidazo[1,2-a]pyrimidine-3-carboxamide]",inhibition in vivo at 39 mg/kg (Diabetic Hamster; single oral dose 39 mg/kg): 5%; Fold increase in GLP Release [1]: 2.03 fold
3 to 4,"CN(C(=O)c1c(-c2ccc(O)cc2)nc2ncccn12)c1ccc(Cl)cc1 [compound 30, N-(4-chlorophenyl)-2-(4-hydroxyphenyl)-N-methylimidazo[1,2-a]pyrimidine-3-carboxamide]",Fold increase in GLP Release [1]: 1.69 fold
2 to 3,"CN(C(=O)c1c(-c2cccc(C#N)c2)nc2ncccn12)c1ccc(Cl)cc1 [Compound no. 36, N-(4-chlorophenyl)-2-(3-cyanophenyl)-N-methylimidazo[1,2-a]pyrimidine-3-carboxamide]",inhibition in vivo at 38 mg/kg (Diabetic Hamster; single oral dose 38 mg/kg): 8%
> 4,"CN(C(=O)c1c(-c2cccc(C(F)(F)F)c2)nc2ncccn12)c1ccc(F)cc1 [Compound no. 33, N-(4-fluorophenyl)-N-methyl-2-[3-(trifluoromethyl)phenyl]imidazo[1,2-a]pyrimidine-3-carboxamide]",inhibition in vivo at 41 mg/kg (Diabetic Hamster): 20%; EC50 (human TGR5 [3]): 0.155 µM; Fold increase in GLP Release [1]: 1.83 fold
2 to 3,"COc1ccc(N(C)C(=O)c2c(-c3ccc(Cl)cc3)nc3ncccn23)cc1OC [compound 19, 2-(4-chlorophenyl)-N-(3,4-dimethoxyphenyl)-N-methylimidazo[1,2-a]pyrimidine-3-carboxamide]",
2 to 3,"CN(C(=O)c1c(-c2cccc(C#N)c2)nc2ncccn12)c1ccc(F)cc1 [compound 35, 2-(3-cyanophenyl)-N-(4-fluorophenyl)-N-methylimidazo[1,2-a]pyrimidine-3-carboxamide]",
2 to 3,"CN(C(=O)c1c(-c2ccccn2)nc2ncccn12)c1ccc2c(c1)CCC2 [compound 17, N-(2,3-dihydro-1H-inden-5-yl)-N-methyl-2-(pyridin-2-yl)imidazo[1,2-a]pyrimidine-3-carboxamide]",
3 to 4,"CC(C)N(C(=O)c1c(-c2ccc(F)cc2)nc2ncccn12)c1ccc(Cl)cc1 [Compound no. 65, N-(4-chlorophenyl)-2-(4-fluorophenyl)-N-(propan-2-yl)imidazo[1,2-a]pyrimidine-3-carboxamide]",inhibition in vivo at 41 mg/kg (Diabetic Hamster): 10%
2 to 3,"CN(C(=O)c1c(-c2ccc(O)c(O)c2)nc2ncccn12)c1ccc2c(c1)CCC2 [compound 15, N-(2,3-dihydro-1H-inden-5-yl)-2-(3,4-dihydroxyphenyl)-N-methylimidazo[1,2-a]pyrimidine-3-carboxamide]",
2 to 3,"COc1ccc(-c2nc3ncccn3c2C(=O)N(C)c2ccc(Cl)cc2)cc1 [compound 16, N-(4-chlorophenyl)-2-(4-methoxyphenyl)-N-methylimidazo[1,2-a]pyrimidine-3-carboxamide]",
> 4,"CN(C(=O)c1c(-c2ccc(Cl)cc2)nc2ncccn12)c1ccc(Cl)cc1 [Compound no. 5, N,2-bis(4-chlorophenyl)-N-methylimidazo[1,2-a]pyrimidine-3-carboxamide]",
2 to 3,"CN(C(=O)c1c(-c2ccc(Cl)cc2)nc2ncccn12)c1ccc(F)cc1 [compound 18, 2-(4-chlorophenyl)-N-(4-fluorophenyl)-N-methylimidazo[1,2-a]pyrimidine-3-carboxamide]",
2 to 3,"COc1ccc(N(C)C(=O)c2c(-c3ccc(Cl)cc3)nc3ncccn23)c(OC)c1 [compound 25, 2-(4-chlorophenyl)-N-(2,4-dimethoxyphenyl)-N-methylimidazo[1,2-a]pyrimidine-3-carboxamide]",
1.5 to 2,"COc1ccc(-c2nc3ncccn3c2C(=O)N(C)c2ccc(F)cc2F)cc1F [compound 43, N-(2,4-difluorophenyl)-2-(3-fluoro-4-methoxyphenyl)-N-methylimidazo[1,2-a]pyrimidine-3-carboxamide]",
1.5 to 2,"O=C(Nc1ccc(F)cc1F)c1c(-c2ccc(F)cc2)nc2ncccn12 [compound 39, N-(2,4-difluorophenyl)-2-(4-fluorophenyl)imidazo[1,2-a]pyrimidine-3-carboxamide]",
2 to 3,"CN(C(=O)c1c(Oc2ccc(F)cc2)nc2ncccn12)c1ccc(F)cc1F [Compound no. 46, N-(2,4-difluorophenyl)-2-(4-fluorophenoxy)-N-methylimidazo[1,2-a]pyrimidine-3-carboxamide]",
